Assay results published in doi:10.1101/2025.01.28.635346v1 (bioRxiv, 2025).
Bridge positions count the residues as written; N and C are the ends. Peptide text beside a SMILES is read from it.

Tests used:
[1] = biological target: T1, integrin αvβ6 (Homo sapiens, UniProt P06756+P18564); assay: AlphaLISA competition assay vs LAP, biotinylated αvβ6; assay type: binding
[2] = biological target: T2, integrin αvβ8 (Homo sapiens, UniProt P06756+P26012); assay: AlphaLISA competition assay vs LAP, biotinylated αvβ8; assay type: binding
[3] = biological target: T1, integrin αvβ6; assay: ELISA competition assay, integrin αvβ6 binding to LAP
[4] = biological target: T2, integrin αvβ8; assay: ELISA competition assay, integrin αvβ8 binding to LAP
[5] = biological target: integrin αvβ3 (Homo sapiens, UniProt P05106+P06756); assay: ELISA competition assay, integrin αvβ3; assay type: binding
[6] = αvβ6 IC50, ELISA competition vs LAP, mean, n ≥ 3

IC50 [3] | SMILES | IC50 [1] | IC50 [2] | IC50 [3, 6] | IC50 [4] | IC50 [5]
 | CC[C@H](C)[C@H](NC(=O)[C@@H]1CCCN1C(=O)[C@H](Cc1c[nH]cn1)NC(=O)[C@H](CC(=O)O)NC(=O)CNC(=O)[C@H](CCCNC(=N)N)NC(=O)[C@@H](NC(=O)[C@H](Cc1ccccc1)NC(=O)[C@H](Cc1ccc(O)cc1)NC(=O)[C@@H]1CCC(=O)NCC(=O)NCC(=O)N[C@@H](C)C(=O)NCC(=O)N[C@@H](Cc2c[nH]cn2)C(=O)N[C@@H](C(C)C)C(=O)N2CCC[C@H]2C(=O)N1)C(C)C)C(=O)N[C@@H](CO)C(=O)N[C@@H](Cc1ccccc1)C(=O)N[C@@H](Cc1ccc(O)cc1)C(=O)NCC(=O)O [lassotide 6] (GGAGHVPEYFVRGDHPISFYG-OH; lactam N-8; C-terminus assumed) | 457 nM | 167 nM |  |  | 
 | CC[C@H](C)[C@H](NC(=O)[C@@H]1CCCN1C(=O)[C@H](CC(C)C)NC(=O)[C@H](CC(=O)O)NC(=O)CNC(=O)[C@H](CCCNC(=N)N)NC(=O)[C@@H](NC(=O)[C@H](Cc1ccc(O)cc1)NC(=O)[C@@H]1CCC(=O)NCC(=O)NCC(=O)N[C@@H](C)C(=O)NCC(=O)N[C@@H](Cc2c[nH]cn2)C(=O)N[C@@H](C(C)C)C(=O)N2CCC[C@H]2C(=O)N1)C(C)C)C(=O)N[C@@H](CO)C(=O)N[C@@H](Cc1ccccc1)C(=O)N[C@@H](Cc1ccc(O)cc1)C(=O)NCC(=O)O [lassotide 12] (GGAGHVPEYVRGDLPISFYG-OH; lactam N-8; C-terminus assumed) |  |  | 177 nM | 475 nM | 1 nM
 | CC[C@H](C)[C@H](NC(=O)[C@@H]1CCCN1C(=O)[C@H](CC(C)C)NC(=O)[C@H](CC(=O)O)NC(=O)CNC(=O)[C@H](CCCNC(=N)N)NC(=O)[C@H](Cc1ccccc1)NC(=O)[C@H](Cc1ccc(O)cc1)NC(=O)[C@@H]1CCC(=O)NCC(=O)NCC(=O)N[C@@H](C)C(=O)NCC(=O)N[C@@H](Cc2c[nH]cn2)C(=O)N[C@@H](C(C)C)C(=O)N2CCC[C@H]2C(=O)N1)C(=O)N[C@@H](CO)C(=O)N[C@@H](Cc1ccccc1)C(=O)N[C@@H](Cc1ccc(O)cc1)C(=O)NCC(=O)O [lassotide 13] (GGAGHVPEYFRGDLPISFYG-OH; lactam N-8; C-terminus assumed) |  |  | 624 nM | 221 nM | 20 nM
> 10000 nM | CC[C@H](C)[C@@H]1NC(=O)[C@H]([C@@H](C)CC)NC(=O)[C@@H]2CCCN2C(=O)CNC(=O)[C@H](CC(=O)O)NC(=O)[C@H](CO)NC(=O)CNC(=O)CC[C@@H](C(=O)N[C@@H](Cc2ccccc2)C(=O)N[C@@H](Cc2ccccc2)C(=O)N[C@@H](CC(N)=O)C(=O)N2CCC[C@H]2C(=O)N[C@@H](CC(N)=O)C(=O)NCC(=O)N[C@H](C(=O)N[C@@H](CCSC)C(=O)N[C@@H](Cc2c[nH]cn2)C(=O)N[C@@H](Cc2ccc(O)cc2)C(=O)NCC(=O)O)C(C)C)NC1=O [lassotide 15, klebsidin, reference compound] (GSDGPIIEFFNPNGVMHYG-OH; lactam N-8; C-terminus assumed) |  |  |  | > 10000 nM | > 10000 nM
 | CC[C@H](C)[C@@H]1NC(=O)[C@H]([C@@H](C)CC)NC(=O)[C@@H]2CCCN2C(=O)CNC(=O)[C@H](CC(=O)O)NC(=O)[C@H](CO)NC(=O)CNC(=O)CC[C@@H](C(=O)N[C@@H](Cc2ccccc2)C(=O)N[C@@H](CCCNC(=N)N)C(=O)NCC(=O)N[C@@H](CC(=O)O)C(=O)N[C@@H](CC(C)C)C(=O)NCC(=O)N[C@H](C(=O)N[C@@H](CCSC)C(=O)N[C@@H](Cc2c[nH]cn2)C(=O)N[C@@H](Cc2ccc(O)cc2)C(=O)NCC(=O)O)C(C)C)NC1=O [lassotide 16] (GSDGPIIEFRGDLGVMHYG-OH; lactam N-8; C-terminus assumed) |  |  | 30 nM | 214 nM | 1060 nM
 | CC[C@H](C)[C@@H]1NC(=O)[C@H](CO)NC(=O)CC[C@@H](C(=O)N[C@@H](CO)C(=O)N[C@@H](CCSC)C(=O)N[C@@H](CO)C(=O)N[C@@H](CO)C(=O)N[C@@H](CCC(N)=O)C(=O)N[C@H](C(=O)N[C@@H](Cc2ccc(O)cc2)C(=O)N[C@@H](Cc2c[nH]c3ccccc23)C(=O)N2CCC[C@H]2C(=O)O)[C@@H](C)O)NC(=O)[C@H](CCCNC(=N)N)NC(=O)[C@H](CC(C)C)NC(=O)CNC(=O)[C@H](CO)NC(=O)[C@H](CC(=O)O)NC(=O)CNC1=O [lassotide 17, caulonodin V, reference compound] (SIGDSGLRESMSSQTYWP-OH; lactam N-9; C-terminus assumed) |  |  | > 10000 nM | > 10000 nM | > 10000 nM
 | CC[C@H](C)[C@H](NC(=O)[C@H](CC(C)C)NC(=O)[C@H](CC(=O)O)NC(=O)CNC(=O)[C@H](CCCNC(=N)N)NC(=O)[C@H](CCCNC(=N)N)NC(=O)[C@H](Cc1ccccc1)NC(=O)[C@H](Cc1ccc(O)cc1)NC(=O)[C@@H]1CCC(=O)NCC(=O)NCC(=O)N[C@@H](C)C(=O)NCC(=O)N[C@@H](Cc2c[nH]cn2)C(=O)N[C@@H](C(C)C)C(=O)N2CCC[C@H]2C(=O)N1)C(=O)N[C@@H](CO)C(=O)N[C@@H](Cc1ccccc1)C(=O)N[C@@H](Cc1ccc(O)cc1)C(=O)NCC(=O)O [lassotide 20] (GGAGHVPEYFRRGDLISFYG-OH; lactam N-8; C-terminus assumed) | 17 nM | 38 nM |  |  | 
 | CC[C@H](C)[C@H](NC(=O)[C@H](CC(C)C)NC(=O)[C@H](CC(=O)O)NC(=O)CNC(=O)[C@H](CCCNC(=N)N)NC(=O)[C@H](Cc1ccc(O)cc1)NC(=O)[C@H](Cc1ccccc1)NC(=O)[C@H](Cc1ccc(O)cc1)NC(=O)[C@@H]1CCC(=O)NCC(=O)NCC(=O)N[C@@H](C)C(=O)NCC(=O)N[C@@H](Cc2c[nH]cn2)C(=O)N[C@@H](C(C)C)C(=O)N2CCC[C@H]2C(=O)N1)C(=O)N[C@@H](CO)C(=O)N[C@@H](Cc1ccccc1)C(=O)N[C@@H](Cc1ccc(O)cc1)C(=O)NCC(=O)O [lassotide 22] (GGAGHVPEYFYRGDLISFYG-OH; lactam N-8; C-terminus assumed) | 198 nM | 78 nM |  |  | 
 | CC(C)C[C@H](NC(=O)[C@H](CC(=O)O)NC(=O)CNC(=O)[C@H](CCCNC(=N)N)NC(=O)[C@@H](NC(=O)[C@H](Cc1ccccc1)NC(=O)[C@H](Cc1ccc(O)cc1)NC(=O)[C@@H]1CCC(=O)NCC(=O)NCC(=O)N[C@@H](C)C(=O)NCC(=O)N[C@@H](Cc2c[nH]cn2)C(=O)N[C@@H](C(C)C)C(=O)N2CCC[C@H]2C(=O)N1)C(C)C)C(=O)N[C@@H](C)C(=O)N[C@@H](CO)C(=O)N[C@@H](Cc1ccccc1)C(=O)N[C@@H](Cc1ccc(O)cc1)C(=O)NCC(=O)O [lassotide 23] (GGAGHVPEYFVRGDLASFYG-OH; lactam N-8; C-terminus assumed) | 27 nM | 51 nM |  |  | 
 | CC(C)C[C@H](NC(=O)[C@H](CC(=O)O)NC(=O)CNC(=O)[C@H](CCCNC(=N)N)NC(=O)[C@@H](NC(=O)[C@H](Cc1ccccc1)NC(=O)[C@H](Cc1ccc(O)cc1)NC(=O)[C@@H]1CCC(=O)NCC(=O)NCC(=O)N[C@@H](C)C(=O)NCC(=O)N[C@@H](Cc2c[nH]cn2)C(=O)N[C@@H](C(C)C)C(=O)N2CCC[C@H]2C(=O)N1)C(C)C)C(=O)N[C@@H](Cc1ccc(O)cc1)C(=O)N[C@@H](CO)C(=O)N[C@@H](Cc1ccccc1)C(=O)N[C@@H](Cc1ccc(O)cc1)C(=O)NCC(=O)O [lassotide 25] (GGAGHVPEYFVRGDLYSFYG-OH; lactam N-8; C-terminus assumed) | 295 nM | 205 nM |  |  | 
 | CC(C)C[C@H](NC(=O)[C@H](CC(=O)O)NC(=O)CNC(=O)[C@H](CCCNC(=N)N)NC(=O)[C@@H](NC(=O)[C@H](Cc1ccccc1)NC(=O)[C@H](Cc1ccc(O)cc1)NC(=O)[C@@H]1CCC(=O)NCC(=O)NCC(=O)N[C@@H](C)C(=O)NCC(=O)N[C@@H](Cc2c[nH]cn2)C(=O)N[C@@H](C(C)C)C(=O)N2CCC[C@H]2C(=O)N1)C(C)C)C(=O)N[C@@H](Cc1c[nH]c2ccccc12)C(=O)N[C@@H](CO)C(=O)N[C@@H](Cc1ccccc1)C(=O)N[C@@H](Cc1ccc(O)cc1)C(=O)NCC(=O)O [lassotide 26] (GGAGHVPEYFVRGDLWSFYG-OH; lactam N-8; C-terminus assumed) | 24 nM | 85 nM |  |  | 
 | CC(C)C[C@H](NC(=O)[C@H](CC(=O)O)NC(=O)CNC(=O)[C@H](CCCNC(=N)N)NC(=O)[C@@H](NC(=O)[C@H](Cc1ccccc1)NC(=O)[C@H](Cc1ccc(O)cc1)NC(=O)[C@@H]1CCC(=O)NCC(=O)NCC(=O)N[C@@H](C)C(=O)NCC(=O)N[C@@H](Cc2c[nH]cn2)C(=O)N[C@@H](C(C)C)C(=O)N2CCC[C@H]2C(=O)N1)C(C)C)C(=O)N[C@@H](CCC(=O)O)C(=O)N[C@@H](CO)C(=O)N[C@@H](Cc1ccccc1)C(=O)N[C@@H](Cc1ccc(O)cc1)C(=O)NCC(=O)O [lassotide 27] (GGAGHVPEYFVRGDLESFYG-OH; lactam N-8; C-terminus assumed) | 141 nM | 264 nM |  |  | 
 | CC[C@H](C)[C@H](NC(=O)[C@H](CC(C)C)NC(=O)[C@H](CC(=O)O)NC(=O)CNC(=O)[C@H](CCCNC(=N)N)NC(=O)[C@@H](NC(=O)[C@H](Cc1ccccc1)NC(=O)[C@H](Cc1ccc(O)cc1)NC(=O)[C@@H]1CCC(=O)NCC(=O)NCC(=O)N[C@@H](Cc2ccccc2)C(=O)NCC(=O)N[C@@H](Cc2c[nH]cn2)C(=O)N[C@@H](C(C)C)C(=O)N2CCC[C@H]2C(=O)N1)C(C)C)C(=O)N[C@@H](CO)C(=O)N[C@@H](Cc1ccccc1)C(=O)N[C@@H](Cc1ccc(O)cc1)C(=O)NCC(=O)O [lassotide 33] (GGFGHVPEYFVRGDLISFYG-OH; lactam N-8; C-terminus assumed) | 347 nM | 125 nM |  |  | 
